Key:
[1] = target: T1, Glucagon-like peptide 1 receptor (Mus musculus, UniProt O35659); assay: Agonist activity at mouse GLP1 receptor expressed in CHO cells assessed as increase in cAMP level by TR-FRET assay; assay type: functional, cell-based
T1 sequence (O35659 whole entry): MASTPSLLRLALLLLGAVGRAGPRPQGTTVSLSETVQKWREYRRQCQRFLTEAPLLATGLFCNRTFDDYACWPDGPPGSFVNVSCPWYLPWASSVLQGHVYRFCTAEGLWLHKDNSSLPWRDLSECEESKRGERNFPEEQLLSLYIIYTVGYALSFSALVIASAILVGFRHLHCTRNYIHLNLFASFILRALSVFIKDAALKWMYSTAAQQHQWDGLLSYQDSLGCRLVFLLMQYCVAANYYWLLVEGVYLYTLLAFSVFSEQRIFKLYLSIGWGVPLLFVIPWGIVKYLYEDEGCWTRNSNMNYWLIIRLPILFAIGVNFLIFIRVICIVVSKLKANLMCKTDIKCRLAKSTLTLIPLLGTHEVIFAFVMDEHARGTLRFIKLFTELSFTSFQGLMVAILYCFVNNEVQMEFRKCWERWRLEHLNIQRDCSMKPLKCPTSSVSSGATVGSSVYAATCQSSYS

[2] = target: Glucagon receptor (Mus musculus, UniProt Q61606); assay: Agonist activity at mouse GCG receptor expressed in CHO cells assessed as increase in cAMP level by TR-FRET assay; assay type: functional, cell-based
[3] = species: Mus musculus; assay: Selectivity ratio of EC50 for mouse GLP1 receptor to EC50 for mouse GCG receptor
[4] = target: Glucagon-like peptide 1 receptor (Homo sapiens, UniProt P43220); assay: Agonist activity at human GLP1 receptor expressed in CHO cells assessed as increase in cAMP level by TR-FRET assay; assay type: functional, cell-based
[5] = target: T2, Glucagon receptor (Homo sapiens, UniProt P47871); assay: Agonist activity at human GCG receptor expressed in CHO cells assessed as increase in cAMP level by TR-FRET assay; assay type: functional, cell-based
[6] = target: T2, Glucagon receptor; assay: Agonist activity at human GCG receptor expressed in CHO cells assessed as increase in cAMP level by TR-FRET assay relative to glucagon; assay type: functional, cell-based

T2 sequence (P47871 whole entry): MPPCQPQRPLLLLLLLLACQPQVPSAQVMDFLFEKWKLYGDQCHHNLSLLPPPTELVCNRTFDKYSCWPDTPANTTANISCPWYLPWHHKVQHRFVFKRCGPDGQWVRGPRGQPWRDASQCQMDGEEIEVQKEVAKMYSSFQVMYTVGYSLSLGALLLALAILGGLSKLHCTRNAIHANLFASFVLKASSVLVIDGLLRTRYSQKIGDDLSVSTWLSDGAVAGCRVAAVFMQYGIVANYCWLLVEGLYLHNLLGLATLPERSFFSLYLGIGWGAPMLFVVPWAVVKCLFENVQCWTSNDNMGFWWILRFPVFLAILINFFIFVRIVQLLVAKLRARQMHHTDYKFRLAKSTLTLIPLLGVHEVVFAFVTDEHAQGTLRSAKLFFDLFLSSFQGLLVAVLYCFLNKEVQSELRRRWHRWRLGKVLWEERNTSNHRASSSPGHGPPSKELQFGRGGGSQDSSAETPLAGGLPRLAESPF
Chain of Glucagon receptor (Mus musculus, UniProt Q61606) (Q61606 whole entry): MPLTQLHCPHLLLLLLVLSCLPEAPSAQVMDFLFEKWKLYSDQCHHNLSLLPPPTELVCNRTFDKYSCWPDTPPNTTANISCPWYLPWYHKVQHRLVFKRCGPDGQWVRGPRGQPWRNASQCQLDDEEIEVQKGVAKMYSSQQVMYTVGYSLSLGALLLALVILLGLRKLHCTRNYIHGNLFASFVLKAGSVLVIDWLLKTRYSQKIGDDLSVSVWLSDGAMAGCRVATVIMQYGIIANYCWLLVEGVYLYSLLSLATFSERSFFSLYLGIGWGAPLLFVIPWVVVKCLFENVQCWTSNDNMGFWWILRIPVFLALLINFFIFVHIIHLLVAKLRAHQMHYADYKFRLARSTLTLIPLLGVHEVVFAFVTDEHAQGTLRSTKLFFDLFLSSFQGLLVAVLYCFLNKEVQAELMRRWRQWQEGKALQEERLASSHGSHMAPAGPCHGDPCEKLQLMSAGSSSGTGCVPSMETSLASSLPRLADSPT
Chain of Glucagon-like peptide 1 receptor (Homo sapiens, UniProt P43220) (P43220 whole entry): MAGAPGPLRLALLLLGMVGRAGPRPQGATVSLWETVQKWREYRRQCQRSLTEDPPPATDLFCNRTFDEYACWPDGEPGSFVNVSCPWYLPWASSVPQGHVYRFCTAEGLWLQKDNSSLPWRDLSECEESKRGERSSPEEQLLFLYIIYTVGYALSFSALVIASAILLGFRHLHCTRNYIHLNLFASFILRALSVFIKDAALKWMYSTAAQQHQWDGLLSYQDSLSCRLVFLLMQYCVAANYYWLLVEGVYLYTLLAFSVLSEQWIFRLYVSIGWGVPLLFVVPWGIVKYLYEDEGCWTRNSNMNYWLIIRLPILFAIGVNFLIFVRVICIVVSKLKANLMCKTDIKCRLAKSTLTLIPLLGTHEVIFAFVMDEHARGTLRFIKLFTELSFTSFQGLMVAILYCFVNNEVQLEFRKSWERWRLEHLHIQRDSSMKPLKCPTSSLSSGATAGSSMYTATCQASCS

In the case of `CC[C@H](C)[C@H](NC(=O)[C@H](Cc1ccccc1)NC(=O)[C@H](CCC(=O)O)NC(=O)[C@H](CCCCN)NC(=O)[C@H](C)NC(=O)[C@H](C)NC(=O)[C@H](CCC(N)=O)NC(=O)CNC(=O)[C@H](CCC(=O)O)NC(=O)[C@H](CC(C)C)NC(=O)[C@H](Cc1ccc(O)cc1)NC(=O)[C@H](CCCCN)NC(=O)[C@H](CO)NC(=O)[C@@H](NC(=O)[C@H](CC(=O)O)NC(=O)[C@H](CO)NC(=O)[C@@H](NC(=O)[C@H](Cc1ccccc1)NC(=O)[C@@H](NC(=O)CNC(=O)[C@H](CCC(=O)O)NC(=O)[C@H](C)NC(=O)[C@@H](N)Cc1cnc[nH]1)[C@@H](C)O)[C@@H](C)O)C(C)C)C(=O)N[C@@H](C)C(=O)N[C@@H](Cc1c[nH]c2ccccc12)C(=O)N[C@@H](CC(C)C)C(=O)N[C@H](C(=O)N[C@@H](CCCCN)C(=O)NCC(=O)N[C@@H](CCCNC(=N)N)C(N)=O)C(C)C`, the EC50 [1] is reported as 0.03 nM, the EC50 [2] is reported as over 100 nM and the Ratio EC50 [3] is reported as under 0.001. For the same compound, the EC50 [4] was 0.09 nM, the EC50 [5] was over 1000 nM and the Activity [6] was under 0.05%.
